# Reference: PubChem BioAssay (NCI)
#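 Growth conditions: 96-well plates. Treatment: test compound, 48 hours, 5 concentrations. Analysis: linear interpolation between bracketing concentrations; unreached endpoints set to highest concentration. GI50 marks 50% less growth. Definition used: TGI = concentration required for complete inhibition of growth.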
# Legend:
# Assay in all cases: NCI anticancer screen, dose series, 48 h
# DMS 114 small cell lung = test system: DMS 114 small cell lung
# DMS 273 small cell lung = test system: DMS 273 small cell lung
# HOP-18 NSCLC = test system: HOP-18 NSCLC
# KM20L2 colon = test system: KM20L2 colon
# LXFL 529 NSCLC = test system: LXFL 529 NSCLC
# M19-MEL melanoma = test system: M19-MEL melanoma
# XF 498 CNS = test system: XF 498 CNS
# RXF-631 renal = test system: RXF-631 renal
# MDA-N = test system: MDA-N
SMILES,TGI (DMS 114 small cell lung) [µM],TGI (DMS 273 small cell lung) [µM],TGI (HOP-18 NSCLC) [µM],TGI (KM20L2 colon) [µM],TGI (LXFL 529 NSCLC) [µM],TGI (M19-MEL melanoma) [µM],TGI (XF 498 CNS) [µM],TGI (RXF-631 renal) [µM],GI50 (DMS 114 small cell lung) [µM],GI50 (KM20L2 colon) [µM],GI50 (LXFL 529 NSCLC) [µM],GI50 (M19-MEL melanoma) [µM],GI50 (DMS 273 small cell lung) [µM],TGI (MDA-N) [µM],GI50 (HOP-18 NSCLC) [µM],GI50 (MDA-N) [µM]
CCOC(=O)C1(Cc2ccc3ccccc3c2)CCCCCN1 (stereo not given),87.4,38.4,> 100,57,> 100,93.8,41.2,,,,,,,,,
Cc1cccc(N=C2NC(=O)C(CC(=O)Nc3ccc(Cl)cc3C)S2)c1 (stereo not given),> 100,> 100,> 100,> 100,> 100,> 100,,> 100,,,,,,,,
CC12C(=O)N(CCN)C(=O)C1C1c3ccccc3C2c2ccccc21 (stereo not given),> 100,> 100,> 100,> 100,> 100,> 100,> 100,,,,,,,,,
C=C=[CH][Sn]([c]1ccccc1)([c]1ccccc1)[c]1ccccc1,2.94,,,4,3.02,3.06,,,1.52,2.02,1.58,1.62,,,,
CCOC(=O)N1CCC(=O)C[C@@H]1C/C=C/P1(=O)O[C@H](c2ccccc2)C(C)N1C(C)C (stereo not given in full),> 100,> 100,,> 100,> 100,> 100,,,,,,,,,,
O=C(/C=C/c1ccc(Cl)c(Cl)c1)C1CCC(Cl)CC1 (stereo not given),30.7,32.1,58.1,46.7,32.3,31.7,33,33.8,,,,,,,,
Nn1c(N=Nc2c(O)[nH]c3ccccc23)n[nH]c1=S,> 100,,> 100,> 100,> 100,> 100,94,,,,,,,,,
COC(=O)C1=Cc2c(OC)cc(OC)c(OC)c2[C@H](c2cc(OC)c(OC)cc2OC)C1C(=O)OC (stereo not given in full),> 100,> 100,,> 100,> 100,> 100,> 100,> 100,,,,,,,,
CCC[CH2][Sn]1([CH2]CCC)[O]C(=O)c2cc(C)ccc2[O]1,0.771,1.73,,2.64,0.336,,,,,1.35,0.129,,0.519,,,
C[C@]12CCCC(=O)C1C[C@H](C(=O)O)CC2 (stereo not given in full),> 100,> 100,> 100,> 100,> 100,> 100,> 100,> 100,,,,,,,,
OC(c1ccccc1)c1c(-c2ccccc2)oc(-c2ccccc2)c1C(O)c1ccccc1 (stereo not given),,,,,,,,,,,,,,24.6,,
CCOC(=O)CNC(=O)C(CSC(=O)N(C)O)NC(=O)CCC(N)C(=O)O (stereo not given),,,> 2000,> 2000,> 2000,> 2000,,,> 2000,> 2000,> 2000,> 2000,> 2000,,> 2000,
CP(C)C.[Ag][I],> 100,> 100,> 100,> 100,31.8,> 100,30.9,> 100,,,,,,,,
O=C1CCC(=O)C(C(=O)CCC(=O)Nc2cccc(Cl)c2)C1 (stereo not given),,,> 100,> 100,> 100,> 100,> 100,,,,,,,,,
O=C1c2ccccc2C(=O)c2c(NC(=O)c3ccc4c5c(ncnc35)-c3ccccc3C4=O)cccc21,,,,,,,,,,,,,,> 100,,
CCOC(=O)C1CC/C(=C(/C#N)C(=O)OC)N1 (stereo not given),> 100,> 100,,> 100,> 100,> 100,> 100,,,,,,,,,
NC(=O)CCC(NC(=O)C(F)(F)F)C(=O)O (stereo not given),> 100,> 100,> 100,> 100,> 100,> 100,> 100,,,,,,,,,
CC[C@@]1(OC(=O)CN)C(=O)OCc2c1cc1n(c2=O)Cc2cc3c(N)c4c(cc3nc2-1)OCO4,,,,,,,,,,,,,,> 100,,0.0127

SMILES,TGI (DMS 114 small cell lung) [µM],TGI (DMS 273 small cell lung) [µM],TGI (HOP-18 NSCLC) [µM],TGI (KM20L2 colon) [µM],TGI (LXFL 529 NSCLC) [µM],TGI (M19-MEL melanoma) [µM],TGI (XF 498 CNS) [µM],TGI (RXF-631 renal) [µM],GI50 (DMS 114 small cell lung) [µM],GI50 (KM20L2 colon) [µM],GI50 (LXFL 529 NSCLC) [µM],GI50 (M19-MEL melanoma) [µM],GI50 (DMS 273 small cell lung) [µM],TGI (MDA-N) [µM],GI50 (HOP-18 NSCLC) [µM],GI50 (MDA-N) [µM]
NC(=O)NC(=O)C1CCCCC1C(=O)O (stereo not given),,,,,,,,,,,,,,> 100,,
CC(C)NC(=O)O/N=C1\CCC2[C@@H]3CC=C4C[C@@H](OC(=O)NC(C)C)CC[C@]4(C)C3CC[C@]12C (stereo not given in full),1.98,2.82,4.67,9.59,2.13,2.81,,3.57,,,,,,,,
O=C1c2cccc3cc([N+](=O)[O-])cc(c23)C(=O)N1O,,,,,,,,,,,,,,> 100,,
CC1=NN(c2ccccc2)C(=O)C1N=Nc1ccc(Br)c(C)c1 (stereo not given),> 100,> 100,> 100,> 100,> 100,> 100,> 100,> 100,,,,,,,,
Cc1cc(C)c2[s+]snc2c1,,> 100,> 100,> 100,> 100,> 100,> 100,> 100,,,,,,,,
N#CC12Cc3ccc4c(c3-c3cccc(c31)CCN2C(=O)c1ccccc1)OCO4 (stereo not given),> 100,> 100,> 100,> 100,> 100,> 100,> 100,,,,,,,,,
CC[O-].CC[O-].O=C([CH-]C(=O)c1ccccc1)c1ccccc1.O=C([CH-]C(=O)c1ccccc1)c1ccccc1.[Ti+4],,,,> 100,,,,,,> 100,,,,,,
Cc1cc2c(cc1C)[n+]([O-])c(-c1c(Cl)cccc1Cl)c(N)[n+]2[O-],98.7,86.3,86.4,> 100,> 100,> 100,,35.7,,,,,,,,
O=C1c2ccccc2C(=O)c2sc(Nc3ccc(Cl)c(Cl)c3)nc21,3.26,22.1,14.3,41.7,3.53,2.44,6.04,31.4,,,,,,,,
CS(=O)(=O)c1nc(Cl)c(Cl)c(C#N)c1Cl,32.2,24.6,11.5,20.8,2.99,,7.93,38.9,,,,,,3.5,,
CC12OC3CC(O1)C1(C=O)C4CCC5(C)C(c6ccc(=O)oc6)CCC5(O)C4CCC1(C3)O2 (stereo not given),0.191,0.235,0.748,1.31,0.432,1.16,,,,,,,,,,
COC(=O)C(=O)C1CCCCC(C2=NC3NN=C(N)N3C2=O)C1=O (stereo not given),> 100,> 100,> 100,> 100,> 100,> 100,> 100,> 100,,,,,,,,
NNC(=S)N/N=C/C(Cl)=C(\Cl)C(=O)O,> 100,> 100,,> 100,> 100,> 100,> 100,,,,,,,,,
CC(C)[O-].CC(C)[O-].[O-]c1cccc2cccnc12.[O-]c1cccc2cccnc12.[Ti+4],,,> 100,> 100,,,,,,,,,,,,
C[N+]1=c2c3cccc4cccc(c(=O)n2CCC1)c43,38.7,56.7,> 100,47.2,40.7,35.8,38,,,,,,,,,
CCOc1ccc(NC(=O)CCC(=O)NN)cc1,> 100,> 100,> 100,> 100,> 100,,95,,,,,,,,,
CCc1oc2ccc(OC)c3c2c1C=CC=C3,,> 100,,,> 100,> 100,,,,,,,,,,
COc1cc2c3c(c1O)C1(C=CC(=O)C=C1)CC3N(C)CC2 (stereo not given),,,,,,,,,,,,,,24.2,,
